Patent publication US20220220106A1, “QUINOLINE COMPOUNDS AND PHARMACEUTICAL COMPOSITIONS AND USES THEREOF” (Academy of Military Medical Sciences, priority 2019, published 2022)

Legend:
[1] = molecular target: T1, mTORC1 (Homo sapiens, UniProt P42345); experiment: Western blot, phosphorylation of Thr389 of p70S6K1 in RD cells (mTORC1 inhibition); format: cell-based; details: 20 μM, 2 hours, Western blot (FIG. 1)
T1 construct: endogenous in cells; host or cells: RD cells
Procedure: In order to test the inhibitory activity of the synthesized compounds on the two mTOR complexes, the inhibitory activity experiments of mTORC1 and mTORC2 were carried out. Since mTORC1 and mTORC2 exerted their function by activating the phosphorylation of downstream substrates, the inhibitory activity of the compounds on mTORC1 and mTORC2 could be determined by detecting the phosphorylation levels of the Thr389 site of mTORC1 downstream substrate p70S6K1 and the Ser473 site of mTORC2 downstream substrate Akt.
Pretreatment of Compound:
(1) RD cells were cultured in DMEM medium containing 10% FBS and 1×PS (penicillin and streptomycin were at concentrations 100 IU and 100 μg/mL, respectively) at 37° C. and 5% CO2.
(2) The RD cells (5×10^5 cells/2 mL medium) were inoculated into a 6-well plate and incubated at 37° C. and 5% CO2 for 24 hours.
(3) The cells were washed once with PBS, and the cells were cultured in serum-free medium without nutrients overnight.
(4) Formulation of compounds: […]
Preparation of insulin medium: Insulin was diluted in DMEM medium containing 10% FBS and 1×PS so that the final concentration of insulin was 167 nM.
Pretreatment of compound to be tested: The compound was dissolved in DMSO so that the concentration of the test compound was 20 mM, and the compound was diluted in 167 nM insulin medium to reach a concentration of 20 μM.
Preparation of rapamycin solution: Rapamycin was dissolved in DMSO to a concentration of 10 mM, and the rapamycin was diluted in 167 nM insulin medium to reach a concentration of 20 μM.
(5) The serum-free medium in each well was removed.
(6) 2 mL of complete medium containing DMSO was added to each well as a control carrier. The final concentration of DMSO was 0.2%.
(7) 2 mL of 20 μM rapamycin solution and 20 μM the compound to be tested were added to the designated wells, respectively. The final concentration of DMSO was 0.2%.
(8) The cells were incubated for 2 hours at 37° C. and 5% CO2.
Protein extraction and concentration determination:
(1) The cells were washed once with refrigerated PBS, and then the PBS was discarded.
(2) 150 μL of cell extraction buffer (RIPA, […], catalog number: C1053) was transferred into each well to lyse the cells, and then the resulting cell solution were incubated on ice for 30 minutes.
(3) Centrifugation was performed at 14000 rpm (13000× g) for 30 minutes at 4° C.
(4) The supernatant was transferred into a new eppendorf tube, and the cell lysate was stored at −80° C. before testing.
(5) The protein concentration was determined by BCA method.
Preparation of Buffer Solutions:
(1) 100× Protease inhibitor (Beyotime, catalog number: P1005): 1 mL of redistilled water was added to the protease inhibitor and stirred gently until the solid was completely dissolved.
(2) Lysis Buffer: […] of 100× protease inhibitor and 2× phosphatase inhibitor Cocktails PhosSTOP (Beyotime, catalog number: P1082) were added to 100 mL of the cell extract, and stirred gently until it was completely dissolved.
(3) Electrophoresis Running Buffer:
10×MOPS buffer: 52.33 g of MOPS, 30.29 g of Tris base, 10 mL of 0.5 mol/L EDTA (pH 8.5) and 5 g of SDS was dissolved in 400 mL of redistilled water, stirred to dissolve, and the pH was adjusted to 7.5, then redistilled water was added again to reach a volume of 500 mL; 1×MOPS: 100 mL of 10×MOPS was diluted with redistilled water to 1000 mL.
(4) 1× Transfer Buffer: […] of 10× transfer buffer (144 g of glucine, 30.3 g of trisbase, and distilled water were mixed to reach a volume of 1 L) and 400 mL of methanol were dissolved in 1500 mL of redistilled water, and then the redistilled water was added to reach a volume of 2000 mL. […]

SMILES	p70 phosphorylation expression level [1]	melting point [°C]
CCCC(=O)Nc1ccc(-c2ccc3ncc4ccc(=O)n(-c5cccc(C(F)(F)F)c5)c4c3c2)cn1 [HTL-7-05, 9-[3-(6-butyrylamino)pyridyl]-2-oxo-1-[3-(trifluoromethyl)phenyl]-1,2-dihydrobenzo[h][1,6]naphthyridine]	significantly down-regulate	
O=C(Cc1ccccc1)Nc1ccc(-c2ccc3ncc4ccc(=O)n(-c5cccc(C(F)(F)F)c5)c4c3c2)cn1 [HTL-7-10, 9-[3-(6-phenylacetylamino)pyridyl]-2-oxo-1-[3-(trifluoromethyl)phenyl]-1,2-dihydrobenzo[h][1,6]naphthyridine]	significantly down-regulate	
NC(=O)/C=C/c1ccc2ncc3oc(=O)n(-c4cccc(C(F)(F)F)c4)c3c2c1 [HTL-6-30, (E)-8-(2-carbamoyl-vinyl)-1-[3-(trifluoromethyl)phenyl]oxazolo[5,4-c]quinolin-2(1H)-one]	significantly down-regulate	291 to 292
COc1cc(-c2ccc3ncc4ccc(=O)n(-c5cccc(C(F)(F)F)c5)c4c3c2)cnc1N [HTL-7-19, 9-[3-(6-amino-5-methoxy)pyridyl]-2-oxo-1-[3-(trifluoromethyl)phenyl]-1,2-dihydrobenzo[h][1,6]naphthyridine]	significantly down-regulate	233 to 234
CCCCC(=O)Nc1ccc(-c2ccc3ncc4ccc(=O)n(-c5cccc(C(F)(F)F)c5)c4c3c2)cn1 [HTL-7-08, 9-[3-(6-valerylamino)pyridyl]-2-oxo-1-[3-(trifluoromethyl)phenyl]-1,2-dihydrobenzo[h][1,6]naphthyridine]	significantly down-regulate	
O=c1ccc2cnc3ccc(C4=CCC5(CC4)OCCO5)cc3c2n1-c1cccc(C(F)(F)F)c1 [HTL-7-13, 9-(1,4-dioxa-spiro[4.5]dec-7-en-8-yl)-2-oxo-1-[3-(trifluoromethyl)phenyl]-1,2-dihydrobenzo[h][1,6]naphthyridine]	significantly down-regulate	210 to 211
O=c1ccc2cnc3ccc(-c4ccc5ncccc5c4)cc3c2n1-c1cccc(C(F)(F)F)c1 [HTL-6-47, 9-(6-quinolyl)-2-oxo-1-[3-(trifluoromethyl)phenyl]-1,2-dihydrobenzo[h][1,6]naphthyridine]	significantly down-regulate	196 to 197
O=c1ccc2cnc3ccc(-c4ccc(N5CCCC5)nc4)cc3c2n1-c1cccc(C(F)(F)F)c1 [HTL-7-20, 9-[3-(6-pyrrolidinyl)pyridyl]-2-oxo-1-[3-(trifluoromethyl)phenyl]-1,2-dihydrobenzo[h][1,6]naphthyridine]	significantly down-regulate	
Cc1ncccc1-c1ccc2ncc3ccc(=O)n(-c4cccc(C(F)(F)F)c4)c3c2c1 [HTL-6-49, 9-[3-(2-methyl)pyridyl]-2-oxo-1-[3-(trifluoromethyl)phenyl]-1,2-dihydrobenzo[h][1,6]naphthyridine]	significantly down-regulate	
Nc1cccc(Nc2ccc3ncc4ccc(=O)n(-c5cccc(C(F)(F)F)c5)c4c3c2)c1 [HTL-6-11, 9-(3-aminophenyl)imino-2-oxo-1-[3-(trifluoromethyl)phenyl]-1,2-dihydrobenzo[h][1,6]naphthyridine]	significantly down-regulate	
CC(C)(C)OC(=O)Nc1ccc(-c2ccc3ncc4ccc(=O)n(-c5cccc(C(F)(F)F)c5)c4c3c2)cn1 [HTL-7-21, 9-[3-(6-tert-butoxycarbonylamino)pyridyl]-2-oxo-1-[3-(trifluoromethyl)phenyl]-1,2-dihydrobenzo[h][1,6]naphthyridine]	significantly down-regulate	
O=c1ccc2cnc3ccc(-c4ccc(N5CCOCC5)nc4)cc3c2n1-c1cccc(C(F)(F)F)c1 [HTL-7-18, 9-[3-(6-morpholin-4-yl)pyridyl]-2-oxo-1-[3-(trifluoromethyl)phenyl]-1,2-dihydrobenzo[h][1,6]naphthyridine]	significantly down-regulate	
COc1ncc(-c2ccc3ncc4ccc(=O)n(-c5cccc(C(F)(F)F)c5)c4c3c2)cn1 [HTL-7-06, 9-[5-(2-methoxy)pyrimidyl]-2-oxo-1-[3-(trifluoromethyl)phenyl]-1,2-dihydrobenzo[h][1,6]naphthyridine]	significantly down-regulate	262 to 264
NC(=O)c1ccc(-c2ccc3ncc4oc(=O)n(-c5cccc(C(F)(F)F)c5)c4c3c2)cc1 [HTL-5-21, 8-(4-carbamoyl)phenyl-1-[3-(trifluoromethyl)phenyl]oxazolo[5,4-c]quinolin-2(1H)-one]	significantly down-regulate	294 to 296
O=C(Nc1ccc(-c2ccc3ncc4ccc(=O)n(-c5cccc(C(F)(F)F)c5)c4c3c2)cn1)OCc1ccccc1 [HTL-7-14, 9-[3-(6-benzyloxyamido)pyridyl]-2-oxo-1-[3-(trifluoromethyl)phenyl]-1,2-dihydrobenzo[h][1,6]naphthyridine]	significantly down-regulate	
O=C1Cc2cc(-c3ccc4ncc5ccc(=O)n(-c6cccc(C(F)(F)F)c6)c5c4c3)ccc2N1 [HTL-7-04, 9-[5-(2-oxo)indolyl]-2-oxo-1-[3-(trifluoromethyl)phenyl]-1,2-dihydrobenzo[h][1,6]naphthyridine]	significantly down-regulate	
O=C(Nc1ccc(-c2ccc3ncc4ccc(=O)n(-c5cccc(C(F)(F)F)c5)c4c3c2)cn1)Oc1ccccc1 [HTL-7-15, 9-[3-(6-phenoxyamido)pyridyl]-2-oxo-1-[3-(trifluoromethyl)phenyl]-1,2-dihydrobenzo[h][1,6]naphthyridine]	significantly down-regulate	
COc1ccc(CC(=O)Nc2ccc(-c3ccc4ncc5ccc(=O)n(-c6cccc(C(F)(F)F)c6)c5c4c3)cn2)cc1 [HTL-7-11, 9-{3-[6-(4-methoxy)phenylacetylamino]pyridyl}-2-oxo-1-[3-(trifluoromethyl)phenyl]-1,2-dihydrobenzo[h][1,6]naphthyridine]	significantly down-regulate	241 to 243
Nc1cccc(Nc2ccc3ncc4ccc(=O)n(-c5cccc(C(F)(F)F)c5)c4c3c2)n1 [HTL-6-12, 9-[2-(6-aminopyridyl)]imino-2-oxo-1-[3-(trifluoromethyl)phenyl]-1,2-dihydrobenzo[h][1,6]naphthyridine]	significantly down-regulate	
CN(C)c1ccc(-c2ccc3ncc4ccc(=O)n(-c5cccc(C(F)(F)F)c5)c4c3c2)cn1 [HTL-7-16, 9-[3-(6-N,N-dimethyl)pyridyl]-2-oxo-1-[3-(trifluoromethyl)phenyl]-1,2-dihydrobenzo[h][1,6]naphthyridine]	significantly down-regulate	
CC(=O)/C=C/c1cnc2ccc(-c3ccc(C)nc3)cc2c1Nc1cccc(C(F)(F)F)c1 [HTL-2-38, (E)-6-[3-(6-methyl)pyridyl]-4-[3-(trifluoromethyl)phenyl]aminoquinoline-3-butenone]	significantly down-regulate	172 to 174
O=c1ccc2cnc3ccc(-c4cc[nH]n4)cc3c2n1-c1cccc(C(F)(F)F)c1 [HTL-6-50, 9-[(1H)-3-pyrazolyl]-2-oxo-1-[3-(trifluoromethyl)phenyl]-1,2-dihydrobenzo[h][1,6]naphthyridine]	significantly down-regulate	283 to 286
